Consider 7 compounds from ChEMBL document CHEMBL3044959, “Feeding deterrents from Aconitum episcopale roots against the red flour beetle, Tribolium castaneum” (J Agric Food Chem, 2011).

Each structure is given as a SMILES string.

Data set [1] concerns Tribolium castaneum. Kind of data set: Feeding deterrent activity against Tribolium castaneum (red flour beetle) adults using wheat flour assessed as inhibition of insect feeding measured after 3 days. The format is functional, organism-based.
Data set [2] can be described thus: Toxicity in ip dosed Mus musculus (mouse). It is filed as organism-based. The note with it: in vivo.
Data set [3] in a line: Toxicity in iv dosed Mus musculus (mouse). The note with it: in vivo. It is filed as organism-based.
Data set [4] concerns Tribolium castaneum. Kind of data set: Feeding deterrent activity against Tribolium castaneum (red flour beetle) adults using wheat flour assessed as consumption of diet at 300 ppm measured after 3 days relative to untreated control. The format is functional.
The subject of data set [5] is Tribolium castaneum. Kind of data set: Feeding deterrent activity against Tribolium castaneum (red flour beetle) adults using wheat flour assessed as consumption of diet at 1000 ppm measured after 3 days relative to untreated control. The format is functional.
The subject of data set [6] is Tribolium castaneum. Kind of data set: Feeding deterrent activity against Tribolium castaneum (red flour beetle) adults using wheat flour assessed as consumption of diet at 10 ppm measured after 3 days relative to untreated control. It is filed as functional.
Data set [7] relates to Tribolium castaneum. Briefly: Feeding deterrent activity against Tribolium castaneum (red flour beetle) adults using wheat flour assessed as consumption of diet at 30 ppm measured after 3 days relative to untreated control. It is filed as functional.
Data set [8] deals with Tribolium castaneum. Kind of data set: Feeding deterrent activity against Tribolium castaneum (red flour beetle) adults using wheat flour assessed as consumption of diet at 100 ppm measured after 3 days relative to untreated control. The format is functional.
Data set [9] is described as follows: Toxicity in po dosed Mus musculus (mouse). Particulars: in vivo. The format is organism-based.

One may read the LD50 as the dose at which mortality reaches 50%. `CCN1C[C@]2(C)CC[C@H](O)[C@@]34C5C[C@@H]6[C@@H](OC)C[C@@](O)(C5[C@H]6O)[C@@H](CC23)C14` (some centres not stated) [KARACOLINE]: the EC50 in the data set on Tribolium castaneum [1] came out at 395.2 ppm. Besides, the LD50 in data set [2] was found to be 298 mg/kg; in [3], 51.5 mg/kg. Further, the Activity in the data set on Tribolium castaneum [4] came out at 54.66%; in the data set on Tribolium castaneum [5] it was 43.84%; with Tribolium castaneum [6], 92.96%; in the data set on Tribolium castaneum [7] it was 77.95%; in the data set on Tribolium castaneum [8], 65.07%.

Turning to `CCN1C[C@]2(COC)CC[C@H](OC)[C@]34C1[C@H](C[C@H]23)[C@@]1(O)C[C@H](OC)[C@H]2C[C@@H]4[C@@H]1[C@H]2O` [TALATISAMINE], the EC50 in the data set with Tribolium castaneum [1] was determined as 342.8 ppm. In addition, the Activity in the data set on Tribolium castaneum [4] was found to be 58.63%; with Tribolium castaneum [5], 48.77%; in the data set with Tribolium castaneum [6] it was 92.47%; with Tribolium castaneum [7] it was 75.89%; in the data set on Tribolium castaneum [8] it was 60.82%.

Turning to `CCN1C[C@]2(COC)CC[C@H](OC)[C@]34C1[C@H]([C@H](OC)[C@H]23)[C@@]1(O)C[C@H](OC)[C@H]2C[C@@H]4[C@@H]1[C@H]2O` [CHASMANINE], the Activity with Tribolium castaneum [4] came out at 69.59%; in the data set with Tribolium castaneum [5] it was 53.29%; in the data set with Tribolium castaneum [6], 90.55%; in the data set with Tribolium castaneum [7], 72.47%; in the data set on Tribolium castaneum [8], 61.64%.

With `CCN1C[C@]2(COC)[C@H](O)C[C@H](OC)[C@]34C1[C@H]([C@H](OC)[C@H]23)[C@@]1(OC(C)=O)C[C@H](OC)[C@@]2(O)C[C@@H]4[C@@H]1[C@H]2OC(=O)c1ccc(OC)cc1` [YUNACONITINE], the EC50 in the data set on Tribolium castaneum [1] came to 654.3 ppm. For the same compound, the LD50 in [9] stood at 2.97 mg/kg. For the same compound, the Activity in the data set with Tribolium castaneum [6] is 96.75%; in the data set on Tribolium castaneum [7] it was 85.48%; in the data set with Tribolium castaneum [8], 68.37%.

In the case of `CCN1C[C@]2(C)CC[C@H](OC)[C@]34C1[C@H](C[C@H]23)[C@@]1(O)C[C@H](OC)[C@H]2C[C@@H]4[C@@H]1[C@H]2O` [SACHACONITINE], in the data set on Tribolium castaneum [1], the EC50 is given as 427.8 ppm. The Activity with Tribolium castaneum [4] was 53.7%; in the data set on Tribolium castaneum [5], 38.08%; with Tribolium castaneum [6] it was 93.97%; in the data set with Tribolium castaneum [7] it was 71.78%; with Tribolium castaneum [8] it was 62.19%.

`CC(=O)O[C@@H]1C[C@H](O)[C@@]23CO[C@@H](O)[C@]1(C)[C@@H]2C[C@@H](O)[C@]1(C)[C@@H]3C(=O)[C@H](OC(C)=O)[C@@]2(C)[C@H](c3ccoc3)C[C@H]3O[C@]321` [TOOSENDANIN]: in the data set on Tribolium castaneum [1], the EC50 is 94.3 ppm.

With `CCN1C[C@]2(COC)CC[C@H](OC)[C@]34C1[C@H]([C@H](OC)[C@H]23)[C@@]1(OC(C)=O)C[C@H](OC)[C@@]2(O)C[C@@H]4[C@@H]1[C@H]2OC(=O)c1ccc(OC)cc1` [CRASSICAULINE A], in the data set with Tribolium castaneum [1], the EC50 is recorded as 1134.5 ppm. Besides, the Activity came to 53.83% in the data set on Tribolium castaneum [4]; 39.59% in the data set on Tribolium castaneum [5]; 97.81% with Tribolium castaneum [6]; 89.73% in the data set on Tribolium castaneum [7]; 78.36% with Tribolium castaneum [8].
